ChEMBL document CHEMBL1158938, “In vitro effects of tremorgenic mycotoxins” (J Nat Prod, 1991)
Calls of active or inactive are those of the source. The calls are words filed in the database; no cut-off is given here.

Experiments:
[1] = Tremorgenic activity in ip dosed mouse; assay type: ADME, organism-based; conditions: in vivo
Ileum [2] = assay: Induction of electrically-stimulated guinea pig ileum twitch contraction at 100 ng/ml relative to control in presence of hyoscine; assay type: functional, Cavia porcellus
Ileum [3] = assay: Induction of guinea pig ileum contraction; assay type: functional, tissue-based; conditions: Cavia porcellus
Ileum [4] = assay: Induction of electrically-stimulated guinea pig ileum twitch contraction at 10 ng/ml relative to control in presence of hyoscine; assay type: functional, Cavia porcellus
Ileum [5] = assay: Induction of electrically-stimulated guinea pig ileum contraction at 10 ng/ml relative to control in presence of acetylcholine; assay type: functional, Cavia porcellus
Ileum [6] = assay: Induction of electrically-stimulated guinea pig ileum twitch contraction at 1 ug/ml relative to control in presence of hyoscine; assay type: functional, Cavia porcellus
Ileum [7] = assay: Induction of electrically-stimulated guinea pig ileum contraction at 1 ug/ml relative to control in presence of acetylcholine; assay type: functional, Cavia porcellus
Ileum [8] = assay: Induction of electrically-stimulated guinea pig ileum contraction at 100 ng/ml relative to control in presence of acetylcholine; assay type: functional, Cavia porcellus
Ileum [9] = assay: Induction of electrically-stimulated guinea pig ileum twitch contraction at 10 ng/ml; assay type: functional, tissue-based; conditions: Cavia porcellus

| SMILES | ED50 [1] [mg/kg] | Activity (Ileum [2]) [%] | Activity (Ileum [3]) | Activity (Ileum [4]) [%] | Activity (Ileum [5]) [%] | Activity (Ileum [6]) [%] | Activity (Ileum [7]) [%] | Activity (Ileum [8]) [%] | Activity (Ileum [9]) |
| --- | --- | --- | --- | --- | --- | --- | --- | --- | --- |
| CC(C)(O)[C@H]1O[C@H]2CC[C@@]3(C)[C@@](O)(CC[C@H]4Cc5c([nH]c6ccccc56)[C@@]43C)C2=CC1=O [PAXILLINE] | 25 | 11 | Dose-dependent effect | 9 | 121 | 2 | 126 | 118 | – |
| C=C1Cc2ccc3[nH]c4c5c3c2[C@H]2[C@@H]1C[C@@H]2C(C)(C)O[C@H]5[C@@H]1CC[C@@]2(O)[C@@]35O[C@@H]3[C@@H](O)[C@@H](C(=C)C)O[C@H]5CC[C@]2(C)[C@@]41C [PENITREM B] | 5 | 10 | – | 12 | 111 | 10 | 117 | 96 | – |
| COc1ccc2c3c4n(c2c1)[C@H](C=C(C)C)OOC(C)(C)C[C@@H]4N1C(=O)[C@@H]2CCCN2C(=O)[C@]1(O)[C@H]3O [VERRUCULOGEN] | 0.39 | 11 | Dose-dependent effect | 7 | 127 | 14 | 109 | 123 | Active |
